Measurements from PubChem BioAssay AID248 (DTP/NCI, 2004).
Toxic doses and inconclusive results are not listed. Cut-off read from the data, not from the text of the source: active = T/C of 150% or more; inactive = T/C below 125%. Square brackets hold non-standard residues; d marks the D form. Peptide text beside a SMILES is read from it. * marks the point of attachment. ξ: configuration not given here. Cbz = O=C(OCc1ccccc1)*; ξI = CCC(C)C(N)C(=O)O

System: L1210 leukemia ip in BDF1 mice, survival T/C
Experiment: NCI In Vivo Anticancer Drug Screen. Data for tumor model L1210 Leukemia (intraperitoneal) in B6D2F1 (BDF1) mice
Settings: endpoint: mean survival time, higher = longer survival
Procedure, shortened: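 Value reflects the ratio of survival in compound-treated mice to survival in vehicle-treated controls, with both groups carrying the same transplanted tumor.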

[1] = dose: 100.0 mg/kg/injection, schedule: Q01DX009 (ip), vehicle: saline with Tween-80
[2] = dose: 200.0 mg/kg/injection, schedule: Q01DX009 (ip), vehicle: saline with Tween-80
[3] = dose: 100.0 mg/kg/injection, schedule: Q04DX003 (ip), vehicle: saline with Tween-80
[4] = dose: 200.0 mg/kg/injection, schedule: Q04DX003 (ip), vehicle: saline with Tween-80
[5] = dose: 400.0 mg/kg/injection, schedule: Q04DX003 (ip), vehicle: saline with Tween-80
[6] = dose: 100.0 mg/kg/injection, schedule: Q04DX003 (ip), vehicle: saline
[7] = dose: 200.0 mg/kg/injection, schedule: Q04DX003 (ip), vehicle: saline
[8] = dose: 400.0 mg/kg/injection, schedule: Q04DX003 (ip), vehicle: saline
[9] = dose: 75.0 mg/kg/injection, schedule: Q01DX001 (ip), vehicle: saline
[10] = dose: 150.0 mg/kg/injection, schedule: Q01DX001 (ip), vehicle: saline
[11] = dose: 50.0 mg/kg/injection, schedule: Q04DX003 (ip), vehicle: saline
[12] = dose: 100.0 mg/kg/injection, schedule: Q01DX001 (ip), vehicle: saline
[13] = dose: 200.0 mg/kg/injection, schedule: Q01DX001 (ip), vehicle: saline
[14] = dose: 400.0 mg/kg/injection, schedule: Q01DX001 (ip), vehicle: saline
[15] = dose: 100.0 mg/kg/injection, schedule: Q01DX001 (ip), vehicle: other
[16] = dose: 200.0 mg/kg/injection, schedule: Q01DX001 (ip), vehicle: other
[17] = dose: 100.0 mg/kg/injection, schedule: Q04DX003 (ip), vehicle: other
[18] = dose: 200.0 mg/kg/injection, schedule: Q04DX003 (ip), vehicle: other

Measured: T/C

C[C@]12CC[C@H]3[C@@H](CCC4=CC(=O)CC[C@@]43C(=O)F)[C@@H]1CC[C@@H]2O
inactive: dose: 100.0 mg/kg/injection, schedule: Q01DX001 (sc), vehicle: steriod suspending solution 97 % of control | dose: 200.0 mg/kg/injection, schedule: Q01DX001 (sc), vehicle: steriod suspending solution 100 % of control | dose: 400.0 mg/kg/injection, schedule: Q01DX001 (sc), vehicle: steriod suspending solution 97 % of control

Cc1c(C)c(NC(=O)/C=C/C(=O)O)c(C)c(C)c1NC(=O)/C=C\C(=O)O
inactive: [1] 104 % of control | [2] 96 % of control | dose: 400.0 mg/kg/injection, schedule: Q01DX009 (ip), vehicle: saline with Tween-80 102 % of control

COc1cccc(OC)c1C1(O)c2ccccc2-c2ccccc21
inactive: [3] 98 % of control | [4] 95 % of control | [5] 95 % of control

CCOC(=O)Cn1ccc(=O)[nH]c1=O
inactive: [6] 98 % of control | [7] 96 % of control | [8] 102 % of control

Cc1cc([N+](=O)[O-])c(C)cc1O
inactive: [9] 91 % of control | [10] 94 % of control

C=CCNCCN1CCN(CCCN2c3ccccc3Sc3ccc(C(F)(F)F)cc32)CC1
inactive: dose: 6.25 mg/kg/injection, schedule: Q04DX003 (ip), vehicle: saline 106 % of control | dose: 12.5 mg/kg/injection, schedule: Q01DX009 (ip), vehicle: saline 103 % of control | dose: 12.5 mg/kg/injection, schedule: Q04DX003 (ip), vehicle: saline 98 % of control | dose: 25.0 mg/kg/injection, schedule: Q01DX009 (ip), vehicle: saline 102 % of control | dose: 25.0 mg/kg/injection, schedule: Q04DX003 (ip), vehicle: saline 102 % of control | [11] 96 % of control

CC(=O)C(C)C(C)(C)C (stereo unspecified)
inactive: [12] 106 % of control | [13] 92 % of control | [14] 97 % of control

CC1CCC(C)C1NC1=NCCO1 (stereo unspecified)
inactive: dose: 6.25 mg/kg/injection, schedule: Q01DX009 (ip), vehicle: saline with Tween-80 90 % of control | dose: 12.5 mg/kg/injection, schedule: Q01DX009 (ip), vehicle: saline with Tween-80 95 % of control | dose: 25.0 mg/kg/injection, schedule: Q01DX009 (ip), vehicle: saline with Tween-80 90 % of control | dose: 25.0 mg/kg/injection, schedule: Q04DX003 (ip), vehicle: saline with Tween-80 93 % of control | dose: 50.0 mg/kg/injection, schedule: Q04DX003 (ip), vehicle: saline with Tween-80 93 % of control | [3] 87 % of control

ClC(Cl)c1nc2ccccc2[nH]1
inactive: dose: 25.0 mg/kg/injection, schedule: Q01DX001 (ip), vehicle: Klucel (hydroxypropylcellulose) (HPC) 94 % of control | [11] 97 % of control

CC(C)(C)OC(=O)N/N=C/c1ccc2c(c1)CCC2
inactive: [3] 100 % of control | [4] 100 % of control | [5] 94 % of control

CCOC(=O)Sc1ccccc1
inactive: [15] 102 % of control | [16] 94 % of control

NC(=O)OCCI
inactive: dose: 50.0 mg/kg/injection, schedule: Q01DX009 (ip), vehicle: saline 105 % of control | dose: 50.0 mg/kg/injection, schedule: Q04DX003 (ip), vehicle: other 101 % of control | [17] 121 % of control | [18] 119 % of control

COCc1ccc(C(=O)Nc2c(N)ncnc2N)cc1
inactive: dose: 100.0 mg/kg/injection, schedule: Q01DX001 (ip), vehicle: saline with Tween-80 100 % of control | dose: 200.0 mg/kg/injection, schedule: Q01DX001 (ip), vehicle: saline with Tween-80 102 % of control | dose: 400.0 mg/kg/injection, schedule: Q01DX001 (ip), vehicle: saline with Tween-80 95 % of control

O=[N+]([O-])c1ccccc1N=P(c1ccccc1)(c1ccccc1)c1ccccc1
inactive: dose: 50.0 mg/kg/injection, schedule: Q01DX009 (ip), vehicle: DMSO 91 % of control | dose: 100.0 mg/kg/injection, schedule: Q01DX009 (ip), vehicle: DMSO 88 % of control | dose: 100.0 mg/kg/injection, schedule: Q04DX003 (ip), vehicle: DMSO 93 % of control | dose: 200.0 mg/kg/injection, schedule: Q04DX003 (ip), vehicle: DMSO 93 % of control

C[N+]12CN3CN(CN(C3)C1)C2
inactive: dose: 50.0 mg/kg/injection, schedule: Q01DX001 (ip), vehicle: carboxymethylcellulose (CMC) 104 % of control | dose: 100.0 mg/kg/injection, schedule: Q01DX001 (ip), vehicle: carboxymethylcellulose (CMC) 106 % of control | [12] 100 % of control | dose: 100.0 mg/kg/injection, schedule: Q01DX009 (ip), vehicle: saline 110 % of control | dose: 200.0 mg/kg/injection, schedule: Q01DX001 (ip), vehicle: carboxymethylcellulose (CMC) 101 % of control | [13] 91 % of control | dose: 200.0 mg/kg/injection, schedule: Q01DX009 (ip), vehicle: saline 114 % of control | dose: 400.0 mg/kg/injection, schedule: Q01DX001 (ip), vehicle: carboxymethylcellulose (CMC) 98 % of control | [14] 96 % of control | dose: 400.0 mg/kg/injection, schedule: Q01DX009 (ip), vehicle: saline 105 % of control

CC(=O)Nc1ccnc(=O)[nH]1
inactive: [9] 106 % of control | [10] 95 % of control

Oc1c(Cl)cc(Cl)cc1CNCc1ccccc1
inactive: [15] 93 % of control | [17] 110 % of control | [16] 94 % of control | [18] 102 % of control | dose: 400.0 mg/kg/injection, schedule: Q01DX001 (ip), vehicle: other 90 % of control | dose: 400.0 mg/kg/injection, schedule: Q04DX003 (ip), vehicle: other 110 % of control

O=C1CC(c2ccccc2)(c2ccccc2)c2ccccc21
inactive: dose: 25.6 mg/kg/injection, schedule: Q04DX002 (ip), vehicle: saline with Tween-80 98 % of control | dose: 64.0 mg/kg/injection, schedule: Q04DX002 (ip), vehicle: saline with Tween-80 102 % of control | dose: 160.0 mg/kg/injection, schedule: Q04DX002 (ip), vehicle: saline with Tween-80 91 % of control | dose: 400.0 mg/kg/injection, schedule: Q04DX002 (ip), vehicle: saline with Tween-80 96 % of control

COC(=O)C(CSCSC)NC(=O)Nc1ccc(F)cc1 (stereo unspecified)
inactive: dose: 50.0 mg/kg/injection, schedule: Q01DX009 (ip), vehicle: saline with Tween-80 98 % of control | [1] 93 % of control | [3] 95 % of control | [2] 94 % of control | [4] 93 % of control | [5] 95 % of control

Cc1ccc(Cl)cc1NC(=O)C(Cl)Cl
inactive: dose: 100.0 mg/kg/injection, schedule: Q01DX009 (ip), vehicle: Klucel (hydroxypropylcellulose) (HPC) 92 % of control | dose: 200.0 mg/kg/injection, schedule: Q01DX009 (ip), vehicle: Klucel (hydroxypropylcellulose) (HPC) 89 % of control | dose: 400.0 mg/kg/injection, schedule: Q01DX009 (ip), vehicle: Klucel (hydroxypropylcellulose) (HPC) 90 % of control

CCCC[n+]1cccc(C(N)=O)c1
inactive: [6] 100 % of control | [7] 100 % of control | [8] 89 % of control

CCC(C)C(NC(=O)CNC(=O)OCc1ccccc1)C(=O)OC (stereo not drawn) (Cbz-Gly-[ξI]-OMe)
inactive: [3] 101 % of control | [4] 98 % of control | [5] 96 % of control

CCCCCCCCCCCCCCCCCC[N+]1(C)CCC1C (stereo unspecified)
inactive: dose: 0.78 mg/kg/injection, schedule: Q04DX003 (ip), vehicle: saline 102 % of control | dose: 1.56 mg/kg/injection, schedule: Q04DX003 (ip), vehicle: saline 101 % of control

CC(=O)OC(C(=O)c1ccccc1)C(=O)c1ccccc1
inactive: dose: 100.0 mg/kg/injection, schedule: Q01DX001 (ip), vehicle: Klucel (hydroxypropylcellulose) (HPC) 88 % of control | dose: 200.0 mg/kg/injection, schedule: Q01DX001 (ip), vehicle: Klucel (hydroxypropylcellulose) (HPC) 108 % of control | dose: 400.0 mg/kg/injection, schedule: Q01DX001 (ip), vehicle: Klucel (hydroxypropylcellulose) (HPC) 88 % of control

CC(C)(C)C(=O)OCn1cnc(=N)c2[nH]cnc21
inactive: dose: 100.0 mg/kg/injection, schedule: Q04DX003 (ip), vehicle: Klucel (hydroxypropylcellulose) (HPC) 100 % of control | dose: 200.0 mg/kg/injection, schedule: Q04DX003 (ip), vehicle: Klucel (hydroxypropylcellulose) (HPC) 108 % of control
